# Patent US8192962B2, “Processes for detecting toxic substances” (Daikin Industries, Ltd., priority 2001, dated 2012)
# Tested on: Transport facilitation protein genes
# Experiment: DNA chip mRNA expression in yeast, transport facilitation protein genes (Table 5)
# Type: cell-based, Saccharomyces cerevisiae S288C
# Summary of the method: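 S. cerevisiae S288C grown at 25° C in YPD were exposed in log phase for two hours to one toxic chemical at a growth-inhibiting, non-lethal concentration; untreated cells served as control. Poly(A) mRNA was reverse-transcribed with Cy3/Cy5-dUTP and hybridized to a whole-genome yeast DNA chip at 65° C for over 12 hours; values are fluorescence ratios versus untreated.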
substance,measurement,setting,value
manganese ethylenebis(dithiocarbamate) [(8)],The level of expressed mRNA in the presence of chemical substance/The level of expressed mRNA in the absence of chemical substance,yeast gene YBL030C,0.8
same,The level of expressed mRNA in the presence of chemical substance/The level of expressed mRNA in the absence of chemical substance,yeast gene YBL099W,0.8
same,The level of expressed mRNA in the presence of chemical substance/The level of expressed mRNA in the absence of chemical substance,yeast gene YBR052C,1.3
same,The level of expressed mRNA in the presence of chemical substance/The level of expressed mRNA in the absence of chemical substance,yeast gene YBR068C,1.0
same,The level of expressed mRNA in the presence of chemical substance/The level of expressed mRNA in the absence of chemical substance,yeast gene YBR127C,1.1
same,The level of expressed mRNA in the presence of chemical substance/The level of expressed mRNA in the absence of chemical substance,yeast gene YBR132C,0.8
same,The level of expressed mRNA in the presence of chemical substance/The level of expressed mRNA in the absence of chemical substance,yeast gene YBR207W,0.9
same,The level of expressed mRNA in the presence of chemical substance/The level of expressed mRNA in the absence of chemical substance,yeast gene YBR293W,0.9
same,The level of expressed mRNA in the presence of chemical substance/The level of expressed mRNA in the absence of chemical substance,yeast gene YBR294W,1.0
same,The level of expressed mRNA in the presence of chemical substance/The level of expressed mRNA in the absence of chemical substance,yeast gene YBR295W,0.9
same,The level of expressed mRNA in the presence of chemical substance/The level of expressed mRNA in the absence of chemical substance,yeast gene YBR298C,0.5
same,The level of expressed mRNA in the presence of chemical substance/The level of expressed mRNA in the absence of chemical substance,yeast gene YCL025C,0.7
same,The level of expressed mRNA in the presence of chemical substance/The level of expressed mRNA in the absence of chemical substance,yeast gene YCL038C,1.2
same,The level of expressed mRNA in the presence of chemical substance/The level of expressed mRNA in the absence of chemical substance,yeast gene YCR024C-A,0.8
same,The level of expressed mRNA in the presence of chemical substance/The level of expressed mRNA in the absence of chemical substance,yeast gene YCR037C,0.7
same,The level of expressed mRNA in the presence of chemical substance/The level of expressed mRNA in the absence of chemical substance,yeast gene YCR098C,1.0
same,The level of expressed mRNA in the presence of chemical substance/The level of expressed mRNA in the absence of chemical substance,yeast gene YDL128W,0.8
same,The level of expressed mRNA in the presence of chemical substance/The level of expressed mRNA in the absence of chemical substance,yeast gene YDL198C,1.1
same,The level of expressed mRNA in the presence of chemical substance/The level of expressed mRNA in the absence of chemical substance,yeast gene YDL210W,1.1
same,The level of expressed mRNA in the presence of chemical substance/The level of expressed mRNA in the absence of chemical substance,yeast gene YDL245C,1.2
same,The level of expressed mRNA in the presence of chemical substance/The level of expressed mRNA in the absence of chemical substance,yeast gene YDR038C,0.9
same,The level of expressed mRNA in the presence of chemical substance/The level of expressed mRNA in the absence of chemical substance,yeast gene YDR039C,0.6
same,The level of expressed mRNA in the presence of chemical substance/The level of expressed mRNA in the absence of chemical substance,yeast gene YDR086C,1.9
same,The level of expressed mRNA in the presence of chemical substance/The level of expressed mRNA in the absence of chemical substance,yeast gene YDR270W,1.2
same,The level of expressed mRNA in the presence of chemical substance/The level of expressed mRNA in the absence of chemical substance,yeast gene YDR298C,1.2
same,The level of expressed mRNA in the presence of chemical substance/The level of expressed mRNA in the absence of chemical substance,yeast gene YDR342C,1.2
same,The level of expressed mRNA in the presence of chemical substance/The level of expressed mRNA in the absence of chemical substance,yeast gene YDR343C,1.2
same,The level of expressed mRNA in the presence of chemical substance/The level of expressed mRNA in the absence of chemical substance,yeast gene YDR345C,1.2
same,The level of expressed mRNA in the presence of chemical substance/The level of expressed mRNA in the absence of chemical substance,yeast gene YDR387C,0.7
same,The level of expressed mRNA in the presence of chemical substance/The level of expressed mRNA in the absence of chemical substance,yeast gene YDR497C,0.6
same,The level of expressed mRNA in the presence of chemical substance/The level of expressed mRNA in the absence of chemical substance,yeast gene YEL027W,0.9
same,The level of expressed mRNA in the presence of chemical substance/The level of expressed mRNA in the absence of chemical substance,yeast gene YEL063C,0.6
same,The level of expressed mRNA in the presence of chemical substance/The level of expressed mRNA in the absence of chemical substance,yeast gene YEL065W,0.9
same,The level of expressed mRNA in the presence of chemical substance/The level of expressed mRNA in the absence of chemical substance,yeast gene YER053C,1.3
same,The level of expressed mRNA in the presence of chemical substance/The level of expressed mRNA in the absence of chemical substance,yeast gene YFL011W,0.8
same,The level of expressed mRNA in the presence of chemical substance/The level of expressed mRNA in the absence of chemical substance,yeast gene YFL041W,1.0
same,The level of expressed mRNA in the presence of chemical substance/The level of expressed mRNA in the absence of chemical substance,yeast gene YFL050C,0.9
same,The level of expressed mRNA in the presence of chemical substance/The level of expressed mRNA in the absence of chemical substance,yeast gene YFL054C,1.5
same,The level of expressed mRNA in the presence of chemical substance/The level of expressed mRNA in the absence of chemical substance,yeast gene YGL006W,0.9
same,The level of expressed mRNA in the presence of chemical substance/The level of expressed mRNA in the absence of chemical substance,yeast gene YGL008C,0.7
same,The level of expressed mRNA in the presence of chemical substance/The level of expressed mRNA in the absence of chemical substance,yeast gene YGL104C,0.8
same,The level of expressed mRNA in the presence of chemical substance/The level of expressed mRNA in the absence of chemical substance,yeast gene YGL167C,0.8
same,The level of expressed mRNA in the presence of chemical substance/The level of expressed mRNA in the absence of chemical substance,yeast gene YGL255W,0.7
same,The level of expressed mRNA in the presence of chemical substance/The level of expressed mRNA in the absence of chemical substance,yeast gene YGR055W,1.1
same,The level of expressed mRNA in the presence of chemical substance/The level of expressed mRNA in the absence of chemical substance,yeast gene YGR065C,1.0
same,The level of expressed mRNA in the presence of chemical substance/The level of expressed mRNA in the absence of chemical substance,yeast gene YGR082W,0.8
same,The level of expressed mRNA in the presence of chemical substance/The level of expressed mRNA in the absence of chemical substance,yeast gene YGR096W,1.0
same,The level of expressed mRNA in the presence of chemical substance/The level of expressed mRNA in the absence of chemical substance,yeast gene YGR138C,1.0
same,The level of expressed mRNA in the presence of chemical substance/The level of expressed mRNA in the absence of chemical substance,yeast gene YGR191W,0.7
same,The level of expressed mRNA in the presence of chemical substance/The level of expressed mRNA in the absence of chemical substance,yeast gene YGR197C,0.8
